Data published in PubChem BioAssay AID2060605 (Molecular Pharmacology Branch, DTP, NCI, 2025).
Values joined by “and” are separate entries in the source; they are usually repeats but may differ in a detail not shown here. Equal entries are not always repeated.

Test system: 947758-054-R-J2-PDC spheroid growth, percent test/control
Test: Anticancer human tumor 947758-054-R-J2-PDC patient-derived colon adenocarcinoma cell line growth inhibition [CLK]
Details: spheroids with HUVEC and MSC; for viability, T/C: stronger effect = lower value; active = viability on the fitted dose curve at most 10% of control; inactive = the rest
Outline: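 Patient-derived tumor cells grown as complex spheroids with HUVEC endothelial cells and mesenchymal stem cells, treated with drug combinations. Concentrations descend in half-log steps from near clinical Cmax, or from 10 microM if Cmax unknown.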

[1] = curve of first compound, second compound 0.0316 µM
[2] = curve of first compound, second compound 0.1 µM
[3] = curve of first compound, second compound 0.316 µM
[4] = curve of first compound, second compound 1 µM
[5] = curve of first compound, second compound 3.16 µM
[6] = curve of first compound, second compound 10 µM
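Note: spheroids exposed to compounds for one week before readout.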
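Throughout, for viability, T/C: 100% = DMSO vehicle control wells.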

COc1ccc([C@@H](O)c2cc(-c3ncnc4cc(N5CCOCC5)ccc34)c(F)cc2Cl)nn1
inactive: viability, T/C (compound 0.0316 µM) 72.8% and 98.3% | viability, T/C (compound 0.1 µM) 69.7% and 91.4% | viability, T/C (compound 0.316 µM) 86.8% and 105% | viability, T/C (compound 1 µM) 108% and 82.2% | viability, T/C (compound 3.16 µM) 97.9% and 117% | viability, T/C (compound 10 µM) 65.9% and 83.9%
> 10000 nM: IC50 (curve of compound)

CCc1c2c(nc3ccc(O)cc13)-c1cc3c(c(=O)n1C2)COC(=O)[C@]3(O)CC + CN1CCN(c2cc(C(=O)Nc3cc4cc(-c5cnn(C)c5)ccc4cn3)ccn2)CC1
3.27 nM: IC50 [2]
active: viability, T/C (second compound 0.0316 µM, first compound 0.316 µM) 6.6% | viability, T/C (second compound 0.0316 µM, first compound 1 µM) 3.27% | viability, T/C (second compound 0.1 µM, first compound 0.1 µM) 9.54% | viability, T/C (second compound 0.1 µM, first compound 0.316 µM) 3.86% | viability, T/C (second compound 0.1 µM, first compound 1 µM) 2.52% | viability, T/C (second compound 0.316 µM, first compound 0.00316 µM) 1.89% | viability, T/C (second compound 0.316 µM, first compound 0.01 µM) 2.41% | viability, T/C (second compound 0.316 µM, first compound 0.0316 µM) 1.16% | viability, T/C (second compound 0.316 µM, first compound 0.1 µM) 1.27% | viability, T/C (second compound 0.316 µM, first compound 0.316 µM) 0.15% | viability, T/C (second compound 0.316 µM, first compound 1 µM) 0.45% | viability, T/C (second compound 1 µM, first compound 0.00316 µM) 0.1% | viability, T/C (second compound 1 µM, first compound 0.01 µM) 0.11% | viability, T/C (second compound 1 µM, first compound 0.0316 µM) 0.12% | viability, T/C (second compound 1 µM, first compound 0.1 µM) 0.09% | viability, T/C (second compound 1 µM, first compound 0.316 µM) 1.68% | viability, T/C (second compound 1 µM, first compound 1 µM) 0.14% | viability, T/C (second compound 3.16 µM, first compound 0.00316 µM) 0.18% | viability, T/C (second compound 3.16 µM, first compound 0.01 µM) 0.26% | viability, T/C (second compound 3.16 µM, first compound 0.0316 µM) 0.41% | viability, T/C (second compound 3.16 µM, first compound 0.1 µM) 0.63% | viability, T/C (second compound 3.16 µM, first compound 0.316 µM) 0.68% | viability, T/C (second compound 3.16 µM, first compound 1 µM) 1.64% | viability, T/C (second compound 10 µM, first compound 0.00316 µM) 0.21% | viability, T/C (second compound 10 µM, first compound 0.01 µM) 0.3% | viability, T/C (second compound 10 µM, first compound 0.0316 µM) 0.79% | viability, T/C (second compound 10 µM, first compound 0.1 µM) 1.24% | viability, T/C (second compound 10 µM, first compound 0.316 µM) 1.43% | viability, T/C (second compound 10 µM, first compound 1 µM) 1.35%
< 3.16 nM: IC50 [3] | IC50 [4] | IC50 [5] | IC50 [6]
inactive: viability, T/C (second compound 0.0316 µM, first compound 0.00316 µM) 98.9% | viability, T/C (second compound 0.0316 µM, first compound 0.01 µM) 32.5% | viability, T/C (second compound 0.0316 µM, first compound 0.0316 µM) 22.7% | viability, T/C (second compound 0.0316 µM, first compound 0.1 µM) 16.4% | viability, T/C (second compound 0.1 µM, first compound 0.00316 µM) 51% | viability, T/C (second compound 0.1 µM, first compound 0.01 µM) 29.2% | viability, T/C (second compound 0.1 µM, first compound 0.0316 µM) 19.8%
7.83 nM: IC50 [1]

NC(=O)C(=Cn1cnc(-c2cc(C(F)(F)F)cc(C(F)(F)F)c2)n1)c1cncnc1 + CN1CCN(c2cc(C(=O)Nc3cc4cc(-c5cnn(C)c5)ccc4cn3)ccn2)CC1
< 9.49 nM: IC50 [2] | IC50 [3] | IC50 [4] | IC50 [5] | IC50 [6]
inactive: viability, T/C (second compound 0.0316 µM, first compound 0.00949 µM) 195% | viability, T/C (second compound 0.0316 µM, first compound 0.03 µM) 224% | viability, T/C (second compound 0.0316 µM, first compound 0.0949 µM) 44.3% | viability, T/C (second compound 0.0316 µM, first compound 0.3 µM) 19% | viability, T/C (second compound 0.0316 µM, first compound 0.949 µM) 10.3% | viability, T/C (second compound 0.0316 µM, first compound 3 µM) 0.87% | viability, T/C (second compound 0.1 µM, first compound 0.00949 µM) 42.9% | viability, T/C (second compound 0.1 µM, first compound 0.03 µM) 24.9% | viability, T/C (second compound 0.1 µM, first compound 0.0949 µM) 16.4%
active: viability, T/C (second compound 0.1 µM, first compound 0.3 µM) 6.99% | viability, T/C (second compound 0.1 µM, first compound 0.949 µM) 0.38% | viability, T/C (second compound 0.1 µM, first compound 3 µM) 0.42% | viability, T/C (second compound 0.316 µM, first compound 0.00949 µM) 0.44% | viability, T/C (second compound 0.316 µM, first compound 0.03 µM) 0.27% | viability, T/C (second compound 0.316 µM, first compound 0.0949 µM) 0.21% | viability, T/C (second compound 0.316 µM, first compound 0.3 µM) 1.5% | viability, T/C (second compound 0.316 µM, first compound 0.949 µM) 0.15% | viability, T/C (second compound 0.316 µM, first compound 3 µM) 0.3% | viability, T/C (second compound 1 µM, first compound 0.00949 µM) 0.13% | viability, T/C (second compound 1 µM, first compound 0.03 µM) 0.18% | viability, T/C (second compound 1 µM, first compound 0.0949 µM) 0.39% | viability, T/C (second compound 1 µM, first compound 0.3 µM) 0.33% | viability, T/C (second compound 1 µM, first compound 0.949 µM) 1.84% | viability, T/C (second compound 1 µM, first compound 3 µM) 0.25% | viability, T/C (second compound 3.16 µM, first compound 0.00949 µM) 0.31% | viability, T/C (second compound 3.16 µM, first compound 0.03 µM) 0.76% | viability, T/C (second compound 3.16 µM, first compound 0.0949 µM) 0.81% | viability, T/C (second compound 3.16 µM, first compound 0.3 µM) 0.66% | viability, T/C (second compound 3.16 µM, first compound 0.949 µM) 1.31% | viability, T/C (second compound 3.16 µM, first compound 3 µM) 1.56% | viability, T/C (second compound 10 µM, first compound 0.00949 µM) 0.47% | viability, T/C (second compound 10 µM, first compound 0.03 µM) 0.74% | viability, T/C (second compound 10 µM, first compound 0.0949 µM) 1.04% | viability, T/C (second compound 10 µM, first compound 0.3 µM) 0.9% | viability, T/C (second compound 10 µM, first compound 0.949 µM) 1.38% | viability, T/C (second compound 10 µM, first compound 3 µM) 0.53%
78.5 nM: IC50 [1]

Nc1ccn(C2OC(CO)C(O)C2(F)F)c(=O)n1 (stereo not drawn)
< 31.6 nM: IC50 (curve of compound)
inactive: viability, T/C (compound 0.0316 µM) 35.4% and 24.8% | viability, T/C (compound 0.1 µM) 9.92% and 9.41% | viability, T/C (compound 0.316 µM) 13.3% and 10.2% | viability, T/C (compound 1 µM) 14.8% and 12.9% | viability, T/C (compound 3.16 µM) 10.8% and 9.65% | viability, T/C (compound 10 µM) 8.94% and 10.9%
